Assay results: the supplement of paper PMC10307832

Key:
Assay in all cases: relative viability (nuclei count vs DMSO), 5 days (fraction); higher = more cells survive
[1] = compound: CC1=CC(=CC=C1)NC2=NC(=CS2)C3=CC=NC=C3 + CS(=O)(=O)CCNCc1ccc(-c2ccc3ncnc(Nc4ccc(OCc5cccc(F)c5)c(Cl)c4)c3c2)o1 [Lapatinib] (partner 2 µM)
Procedure, shortened: (§1)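 One day after seeding in 1536-well plates, lung cancer cell lines were dosed by pin tool. Dosing was either single-drug or a fixed anchor-drug dose plus five library-drug doses (not always all listed) in √10 steps. After 5 days, nuclei were stained in one fix-and-stain step and counted on 4× images, and relative viability is the nuclei count of treated wells over that of vehicle wells, given as the median of duplicate plates.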

[2] = compound: CC1=CC(=CC=C1)NC2=NC(=CS2)C3=CC=NC=C3 + Cc1nc(Nc2ncc(C(=O)Nc3c(C)cccc3Cl)s2)cc(N2CCN(CCO)CC2)n1 [Dasatinib] (partner 0.075 µM)
Procedure, shortened: as §1

Masitinib + Crizotinib = compound: Cc1ccc(NC(=O)c2ccc(CN3CCN(C)CC3)cc2)cc1Nc1nc(-c2cccnc2)cs1 [Masitinib] + C[C@@H](Oc1cc(-c2cnn(C3CCNCC3)c2)cnc1N)c1c(Cl)ccc(F)c1Cl [Crizotinib] (partner 1 µM)
Procedure, shortened: as §1

Masitinib + Olaparib = compound: Cc1ccc(NC(=O)c2ccc(CN3CCN(C)CC3)cc2)cc1Nc1nc(-c2cccnc2)cs1 [Masitinib] + O=C(c1cc(Cc2n[nH]c(=O)c3ccccc23)ccc1F)N1CCN(C(=O)C2CC2)CC1 [Olaparib] (partner 8 µM)
Procedure, shortened: as §1

Row | Cell Line | relative viability ([1]; first compound 0.08 µM) | relative viability ([1]; first compound 0.253 µM) | relative viability ([1]; first compound 0.8 µM) | relative viability ([1]; first compound 2.53 µM) | relative viability ([1]; first compound 8 µM) | relative viability ([2]; first compound 0.253 µM) | relative viability ([2]; first compound 0.8 µM) | relative viability ([2]; first compound 2.53 µM) | relative viability ([2]; first compound 8 µM) | relative viability (Masitinib + Crizotinib; first compound 0.01 µM) | relative viability (Masitinib + Crizotinib; first compound 0.03162 µM) | relative viability (Masitinib + Crizotinib; first compound 0.1 µM) | relative viability (Masitinib + Crizotinib; first compound 0.3162 µM) | relative viability (Masitinib + Crizotinib; first compound 1 µM) | relative viability (Masitinib + Olaparib; first compound 0.01 µM) | relative viability (Masitinib + Olaparib; first compound 0.03162 µM) | relative viability (Masitinib + Olaparib; first compound 0.1 µM) | relative viability (Masitinib + Olaparib; first compound 0.3162 µM) | relative viability (Masitinib + Olaparib; first compound 1 µM) | relative viability ([2]; first compound 0.08 µM)
1 | NCI-H727 | 0.489 | 0.777 | 0.674 | 0.706 | 0.668 | 0.425 | 0.517 | 0.383 | 0.398 | 0.824 | 0.844 | 0.925 | 0.778 | 0.91 | 0.76 | 0.774 | 0.686 | 0.819 | 0.676 | 
2 | NCI-H838 | 0.822 | 0.871 | 0.924 | 0.742 | 0.865 | 0.248 | 0.244 | 0.293 | 0.267 | 0.95 | 0.71 | 0.828 | 0.651 | 0.818 | 0.835 | 0.739 | 0.83 | 0.638 | 0.832 | 0.233
3 | NCI-H1355 | 0.723 | 0.713 | 0.652 | 0.656 | 0.651 | 0.463 | 0.341 | 0.386 | 0.375 | 1.06 | 1.1 | 1.07 | 0.746 | 1.01 | 0.727 | 0.665 | 0.754 | 0.521 | 0.761 | 0.399
4 | NCI-H1437 | 0.772 | 0.626 | 0.684 | 0.479 | 0.545 | 0.438 | 0.586 | 0.392 | 0.649 | 0.896 | 0.875 | 0.923 | 1.04 | 0.94 | 0.623 | 0.603 | 0.668 | 0.616 | 0.61 | 0.497
5 | NCI-H1650 | 0.801 | 0.735 | 0.753 | 0.445 | 0.176 | 0.28 | 0.366 | 0.228 | 0.221 | 0.958 | 1.09 | 0.876 | 0.862 | 1.02 | 0.675 | 0.711 | 0.751 | 0.614 | 0.884 | 0.325
6 | NCI-H1651 | 0.721 | 0.704 | 0.865 | 0.713 | 0.781 | 0.377 | 0.553 | 0.385 | 0.415 | 0.802 | 0.89 | 0.819 | 0.839 | 0.839 | 0.155 | 0.216 | 0.177 | 0.181 | 0.169 | 0.26
7 | NCI-H1666 | 0.245 | 0.24 | 0.256 | 0.283 | 0.241 | 0.737 | 0.699 | 0.522 | 0.582 | 0.91 | 1.17 | 1.03 | 0.744 | 0.832 | 0.736 | 0.716 | 0.724 | 0.695 | 0.73 | 0.734
8 | NCI-H1734 | 0.896 | 1.02 | 1.04 | 0.932 | 0.928 | 0.435 | 0.491 | 0.503 | 0.538 | 0.668 | 0.777 | 0.862 | 0.503 | 0.615 | 0.557 | 0.564 | 0.623 | 0.618 | 0.6 | 0.471
9 | NCI-H1755 | 1.01 | 1.04 | 0.843 | 0.902 | 0.707 | 0.417 | 0.355 | 0.185 | 0.321 |  | 0.804 | 0.866 | 0.816 | 0.828 | 0.769 | 0.832 | 0.893 | 0.849 | 0.755 | 0.331
10 | NCI-H1792 | 0.885 | 0.659 | 0.772 | 0.722 | 0.866 |  | 0.832 | 0.54 | 0.63 | 0.866 | 0.449 | 0.993 | 0.829 | 1.05 | 0.528 | 0.257 | 0.303 | 0.377 | 0.396 | 0.689
11 | NCI-H1915 | 0.91 | 0.892 | 1.01 | 0.876 | 0.823 | 0.328 | 0.289 | 0.318 | 0.328 |  | 0.995 | 1.01 | 1.03 | 1.08 |  | 0.289 |  | 0.254 | 0.238 | 0.282
12 | NCI-H1944 | 0.707 | 0.783 | 0.812 | 0.626 | 0.613 | 0.208 | 0.328 | 0.243 | 0.282 |  | 1.15 | 0.59 | 0.988 | 1.1 |  | 0.344 |  | 0.364 | 0.374 | 0.202
13 | NCI-H1975 | 0.723 | 0.821 | 0.657 | 0.651 | 0.544 | 0.353 | 0.295 | 0.22 | 0.165 | 0.948 | 0.88 | 1.06 | 0.872 | 0.926 | 0.79 | 0.727 | 0.78 | 0.642 | 0.839 | 0.366
14 | NCI-H1993 | 0.685 | 0.802 | 0.7 | 0.869 | 0.778 | 0.513 | 0.52 | 0.545 | 0.485 | 0.942 |  | 0.883 | 0.755 | 0.718 | 1.13 | 0.876 | 1.19 | 1.1 | 1.01 | 0.532
15 | NCI-H2009 | 0.768 | 0.857 | 0.978 | 0.89 | 0.588 | 0.308 | 0.264 | 0.299 | 0.312 | 1.03 | 1.09 | 1 | 1.02 | 0.99 | 0.733 | 0.546 | 0.818 | 0.702 | 0.635 | 0.249
16 | NCI-H2023 | 0.661 | 0.698 | 0.771 | 0.749 | 0.473 | 0.427 | 0.434 | 0.348 | 0.338 | 0.638 | 0.737 | 0.645 | 0.493 | 0.589 | 0.63 | 0.422 | 0.458 | 0.427 | 0.44 | 0.456
17 | NCI-H2085 | 0.658 | 0.639 | 0.707 | 0.67 | 0.674 | 0.243 | 0.241 | 0.186 | 0.243 | 0.784 | 0.775 | 0.868 | 0.985 | 0.853 | 0.729 | 0.805 | 0.798 | 0.815 | 0.728 | 0.241
